Measured values taken from US4160829A, “Antibacterial 1,2,4-oxadiazolylacetamido cephalosporins” (Gist-Brocades N.V., priority 1972, dated 1979).
Converted amounts (≈) assume the structure as drawn. Where two headings read alike, the source gives them in different places.

What was measured:
[1] = system: Staph.aureus A 2000; experiment: micro serial dilution test; format: cell-based, Staphylococcus aureus; details: Staphylococcus aureus, A2000, 18 h, micro serial dilution (in brackets), about 18 hours, 30° C. or 37° C.; read-out: minimal inhibitory concentration (MIC)
[2] = system: Prot.mirab. A 1200; experiment: agar serial dilution test; format: cell-based, Proteus mirabilis; details: Proteus mirabilis, 24 h, agar serial dilution, 24 hours, 37° C.; read-out: minimal inhibitory concentration (MIC)
[3] = system: Esch.coli U 20; experiment: agar serial dilution test; format: cell-based, Escherichia coli; details: Escherichia coli
[4] = system: Staph.aureus A 2000; experiment: agar serial dilution test; format: cell-based, Staphylococcus aureus; details: Staphylococcus aureus, read-out: minimal inhibitory concentration (MIC)
[5] = system: Staph.aureus A 321; experiment: agar serial dilution test; format: cell-based, Staphylococcus aureus; details: Staphylococcus aureus, read-out: minimal inhibitory concentration (MIC)
[6] = system: Salm.dubl. P 43; experiment: agar serial dilution test; format: cell-based, Salmonella dublin; details: Salmonella enterica, read-out: minimal inhibitory concentration (MIC)
[7] = system: Prot.rettg. A 821; experiment: agar serial dilution test; format: cell-based, Proteus rettgeri; details: Providencia rettgeri, read-out: minimal inhibitory concentration (MIC)
[8] = system: Staph.aureus A 2001; experiment: micro serial dilution test; format: cell-based, Staphylococcus aureus; details: Staphylococcus aureus, micro serial dilution (in brackets), about 18 hours, 30° C. or 37° C., read-out: minimal inhibitory concentration (MIC)
[9] = system: Bruc.melit. A 488; experiment: microbe, parasite or virus in culture; format: cell-based; details: Brucella melitensis, 24 h, read-out: minimal inhibitory concentration (MIC)
[10] = system: Prot.morg. 2241; experiment: agar serial dilution test; format: cell-based; details: read-out: minimal inhibitory concentration (MIC)
[11] = system: Prot.mirab. H 3; experiment: agar serial dilution test; format: cell-based, Proteus mirabilis; details: Proteus mirabilis
[12] = system: Bac.Subt.ATCC 6633; experiment: agar serial dilution test; format: cell-based, Bacillus subtilis; details: Bacillus subtilis, read-out: minimal inhibitory concentration (MIC)
[13] = system: Shig.equir. T 3; experiment: agar serial dilution test; format: cell-based; details: 37° C., read-out: minimal inhibitory concentration (MIC)
[14] = system: Prot.mirab. L 93; experiment: agar serial dilution test; format: cell-based, Proteus mirabilis; details: Proteus mirabilis
[15] = system: Salm.typh. R 127; experiment: agar serial dilution test; format: cell-based; details: 24 h, 37° C., read-out: minimal inhibitory concentration (MIC)
[16] = system: Haem.infl. A 1030; experiment: micro serial dilution test; format: cell-based; details: read-out: minimal inhibitory concentration (MIC)
[17] = system: Past.multo. A 723; experiment: agar serial dilution test; format: cell-based, Pasteurella multocida; details: Pasteurella multocida, read-out: minimal inhibitory concentration (MIC)
[18] = system: Pseud.aerug. Wyeth A 1058; experiment: agar serial dilution test; format: cell-based; details: read-out: minimal inhibitory concentration (MIC)
[19] = system: Staph.aureus A 355; experiment: agar serial dilution test; details: Staphylococcus aureus, A355, 24 h
[20] = system: Staph.aureus A 2001; experiment: agar serial dilution test; format: cell-based, Staphylococcus aureus; details: Staphylococcus aureus, A2001, 24 h, agar serial dilution, 24 hours, 37° C.; read-out: minimal inhibitory concentration (MIC)
[21] = system: Staph.aureus A 355; experiment: micro serial dilution test; format: cell-based, Staphylococcus aureus; details: Staphylococcus aureus, A355; micro serial dilution (in brackets), about 18 hours, 30° C. or 37° C.; penicillinase-producing strain; read-out: minimal inhibitory concentration (MIC)
Description: Two drops of a stock solution of the test compound (antibiotic) in a known concentration were brought into the first hole of a test plate with 9 numbered holes with a sterile Pasteur pipette. After rinsing this pipette three times with a physiological NaCl-solution, two drops of a stock solution of the test organism in a culture medium were brought in all the holes except for hole 8. In the first hole, the solution of the tested compound had been half diluted, then by stirring the liquid in the first hole and adding two drops of this mixture to the second hole and so on until hole 8, dilutions of the test compound solution were obtained in geometrical progression. The hole 9 contained no antibiotic and served for checking the growth of the testogranism in a blank medium. The test plate was incubated at 30° C. or 37° C. for about 18 hours.
^1 Penicillinase-producing strain

[22] = system: Kleb.pneum. A 809; experiment: agar serial dilution test; format: cell-based, Klebsiella pneumoniae; details: Klebsiella pneumoniae, read-out: minimal inhibitory concentration (MIC)
[23] = system: Strep. faec. L 80; experiment: agar serial dilution test; format: cell-based, Streptococcus faecalis; details: Enterococcus faecalis, read-out: minimal inhibitory concentration (MIC)
[24] = system: Pseud.aerug. H 10; experiment: agar serial dilution test; format: cell-based; details: read-out: minimal inhibitory concentration (MIC)
[25] = system: Pseud.aerug. 2396; experiment: agar serial dilution test; format: cell-based; details: read-out: minimal inhibitory concentration (MIC)
[26] = system: Dipl.pneum. L 54; experiment: agar serial dilution test; format: cell-based, Diplococcus pneumoniae; details: Streptococcus pneumoniae, read-out: minimal inhibitory concentration (MIC)
[27] = system: Strep.haem. A 266; experiment: agar serial dilution test; format: cell-based, Streptococcus haemolyticus; details: Streptococcus, read-out: minimal inhibitory concentration (MIC)
[28] = U20, agar serial dilution, 24 hours, 37° C., read-out: minimal inhibitory concentration (MIC)
[29] = A2000, 24 h, agar serial dilution, 24 hours, 37° C.
[30] = A321, 24 h, agar serial dilution, 24 hours, 37° C.
[31] = agar serial dilution, 24 hours, 37° C.
[32] = 24 h, agar serial dilution, 24 hours, 37° C.
[33] = agar serial dilution, 24 hours, 37° C., read-out: minimal inhibitory concentration (MIC)
[34] = ATCC6633, 24 h, agar serial dilution, 24 hours, 37° C.
[35] = 24 h, read-out: minimal inhibitory concentration (MIC), agar serial dilution, 24 hours, 37° C.
[36] = 18 h, micro serial dilution (in brackets), about 18 hours, 30° C. or 37° C.
[37] = read-out: minimal inhibitory concentration (MIC), agar serial dilution, 24 hours, 37° C., penicillinase-producing strain
[38] = 24 h, agar serial dilution, 24 hours, 37° C., read-out: minimal inhibitory concentration (MIC)
[39] = read-out: minimal inhibitory concentration (MIC)

SMILES | MIC [2] [µg/mL] | MIC [3, 28] [µg/mL] | MIC [4, 29] [µg/mL] | MIC [5, 30] [µg/mL] | MIC [6, 31] [µg/mL] | MIC [7, 32] [µg/mL] | MIC [9] [µg/mL] | MIC [10, 32] [µg/mL] | MIC [11, 33] [µg/mL] | MIC [12, 34] [µg/mL] | MIC ([13]; 24 h) [µg/mL] | MIC [16, 36] [µg/mL] | MIC [17, 31] [µg/mL] | MIC [18, 31] [µg/mL] | MIC [19, 37] [µg/mL] | MIC [21] [µg/mL] | MIC [22, 31] [µg/mL] | MIC [23, 31] [µg/mL] | MIC [24, 31] [µg/mL] | MIC [26, 31] [µg/mL] | other results
Cc1noc(C(C(=O)N[C@@H]2C(=O)N3[C@@H]2SC(C)(C)[C@@H]3C(=O)O)c2ccccc2)n1 (mixture of isomers) [Example 6, sodium DL-6-{[α-phenyl-3-methyl-1,2,4-oxadiazol-5-yl-]-acetamido}-penicillanate] | 100 | 100 | 1.5 | 0.25 | 100 | 3 | 1 | > 100 | 100 | 0.03 | 12.5 | 1.2 | 1 | > 100 | 25 | 125 | 100 | 1 | > 100 | 0.06 | MIC [1]: 23 µg/mL; MIC ([8]; A2001, 18 h): 2.5 µg/mL; MIC [14, 35]: 12.5 µg/mL; MIC [15]: > 100 µg/mL; MIC [20]: 1 µg/mL; MIC [25, 31]: > 100 µg/mL
CC(=O)OCC1=C(C(=O)O)N2C(=O)[C@@H](NC(=O)Cc3ccccc3)[C@H]2SC1 [Cephalosporin G, reference compound] |  |  |  |  | 6 (≈ 15.4 µM) |  | 2 (≈ 5.12 µM) |  |  |  | 25 (≈ 64 µM) |  | 1 (≈ 2.56 µM) | > 100 |  | 1.8 (≈ 4.61 µM) | 1 (≈ 2.56 µM) | 25 (≈ 64 µM) | > 100 | 0.06 (≈ 0.154 µM) | MIC ([3]; U20, 24 h, agar serial dilution, 24 hours, 37° C., read-out: minimal inhibitory concentration (MIC)): 50 µg/mL (≈ 128 µM); MIC ([4]; A2000, agar serial dilution, 24 hours, 37° C.): 1.5 µg/mL (≈ 3.84 µM); MIC ([5]; A321, agar serial dilution, 24 hours, 37° C.): 1.5 µg/mL (≈ 3.84 µM); MIC [7, 31]: 25 µg/mL (≈ 64 µM); MIC ([8]; A2001): 0.9 µg/mL (≈ 2.31 µM); MIC [10, 31]: > 100 µg/mL; MIC [11, 38]: 25 µg/mL (≈ 64 µM); MIC ([12]; ATCC6633, agar serial dilution, 24 hours, 37° C.): 0.09 µg/mL (≈ 0.231 µM); MIC [14, 38]: 2 µg/mL (≈ 5.12 µM); MIC ([16]; micro serial dilution (in brackets), about 18 hours, 30° C. or 37° C.): 125 µg/mL (≈ 320 µM); MIC [19, 39]: 1.5 µg/mL (≈ 3.84 µM); MIC [27, 31]: 0.03 µg/mL (≈ 0.0768 µM); MIC [25, 31]: > 100 µg/mL
CC(=O)OCC1=C(C(=O)O)N2C(=O)[C@@H](NC(=O)Cc3nc(-c4c(C)cc(C)cc4C)no3)[C@H]2SC1 [Example 9, 7-{[3-(2,4,6-trimethylphenyl)-1,2,4-oxadiazol-5-yl]-acetamido}-cephalosporanic acid] | > 100 | > 100 | 1 (≈ 2 µM) | 0.12 (≈ 0.24 µM) | > 100 | > 100 | 100 (≈ 200 µM) | > 100 | > 100 | 0.06 (≈ 0.12 µM) | > 100 | 125 (≈ 250 µM) | 50 (≈ 99.9 µM) | > 100 | 1 (≈ 2 µM) | 0.15 (≈ 0.3 µM) | 50 (≈ 99.9 µM) | 6 (≈ 12 µM) | > 100 | 0.25 (≈ 0.499 µM) | MIC ([8]; A2001, 18 h): 0.11 µg/mL (≈ 0.22 µM); MIC [14, 33]: > 100 µg/mL; MIC [27, 31]: 0.03 µg/mL (≈ 0.0599 µM); MIC [25, 31]: > 100 µg/mL
Cc1nc(CC(=O)N[C@@H]2C(=O)N3[C@@H]2SC(C)(C)[C@@H]3C(=O)O)no1 [Example 13, Sodium 6-[(5-methyl-1,2,4-oxadiazol-3-yl)-acetamido]-penicillanate] | 25 | 50 | 1.5 | 0.12 | 3 | 6 | 3 | 100 | 100 | 0.03 | 3 | 125 | 1 | > 100 | 10 |  | > 100 | 6 | > 100 | 1 | MIC [14, 33]: 3 µg/mL; MIC [15]: 25 µg/mL; MIC [20]: 1.5 µg/mL; MIC [27, 31]: 0.03 µg/mL
CC1=C(C(=O)O)N2C(=O)[C@@H](NC(=O)Cc3ccccc3)[C@H]2SC1 [benzyldesacetoxy ceph., reference compound] |  |  |  |  |  |  | 100 (≈ 301 µM) |  |  |  |  |  |  |  |  |  |  |  |  |  | MIC ([3]; U20, 24 h, read-out: minimal inhibitory concentration (MIC), agar serial dilution, 24 hours, 37° C.): > 100 µg/mL; MIC ([4]; A2000, 24 h): 12.5 µg/mL (≈ 37.6 µM); MIC ([5]; A321, 24 h): 1 µg/mL (≈ 3.01 µM); MIC ([6]; 24 h): > 100 µg/mL; MIC ([7]; 24 h): > 100 µg/mL; MIC ([10]; 24 h): > 100 µg/mL; MIC [11, 35]: > 100 µg/mL; MIC ([12]; ATCC6633, 24 h): 0.5 µg/mL (≈ 1.5 µM); MIC ([13]; 24 hours): 100 µg/mL (≈ 301 µM); MIC [14, 35]: 50 µg/mL (≈ 150 µM); MIC ([16]; 18 h): > 125 µg/mL; MIC ([17]; 24 h): 25 µg/mL (≈ 75.2 µM); MIC ([18]; 24 h): > 100 µg/mL; MIC [19, 39]: 25 µg/mL (≈ 75.2 µM); MIC ([22]; 24 h): 100 µg/mL (≈ 301 µM); MIC ([27]; 24 h): 1 µg/mL (≈ 3.01 µM); MIC ([23]; 24 h): > 100 µg/mL; MIC ([24]; 24 h): > 100 µg/mL; MIC ([25]; 24 h): > 100 µg/mL; MIC ([26]; 24 h): 3 µg/mL (≈ 9.03 µM)
